System: SCNN1B CpG sites
Test: Bisulfite sequencing of CpG sites, cell lines treated vs. untreated
Format: cell-based, human
Parameters: unit not given here
Description: Samples: Paired tumor and adjacent normal tissues from twelve colorectal cancer patients were collected under institutional review board (IRB) approval with patient consent. Tissues were flash frozen in LN2 and stored at −80° C. prior to DNA extraction. All tissues were blinded. Cell lines: A panel of five colorectal cancer cell lines was used. Cells were grown to ˜50% confluence in the appropriate culture medium prior to treatment with 5-aza-2′-deoxycytidine. Optimal concentrations and incubation times (Table 4) were determined by assaying for reduction of p16 promoter methylation using MSP. Cells were harvested, pelleted by centrifugation, and washed twice in Hanks buffered saline solution. Cell pellets were stored at −80° C. Control cells were maintained simultaneously without 5-aza-2′-deoxycytidine treatment. DNA extraction: DNA was purified from tissues and cell lines using the QIAGEN DNeasy® Tissue Kit. Approximately 25-35 mg of each tissue was pulverized under liquid nitrogen before extraction. Elution volume for tissues was 2004. A final volume of […] of cell line DNA was extracted from 15 to 254 of each packed cell pellet (between 10^6-10^7 cells). Purified DNA was stored at −20° C. Bisulfite modification: Modification was performed according to the Frommer method (See Frommer M, et al., PNAS, 89: 1827-1831 (1992).) One μg genomic DNA was diluted into 50 μl with distilled H2O, 5.5 μl of 2M NaOH was added, and the mixture incubated at 37° C. for 10 minutes (to create single stranded DNA). Thirty μl of freshly prepared 10 mM hydroquinone (Sigma) was added to each tube. Five hundred twenty μl of freshly prepared 3M sodium bisulfite (Sigma S-8890), pH 5.0 was then added. Reagents were thoroughly mixed and then covered with mineral oil and incubated at 50° C. for 16 hours. After removing the oil, 1 ml of Wizard DNA Cleanup Resin (Promega A7280) was added to each tube prior to applying the mixture to miniprep column in the DNA Wizard Cleanup kit. The column was washed with 2 ml of 80% isopropanol, and eluted with 50 μl of heated water (60-70° C.). 5.5 μl of 3 M NaOH to was added to each tube, and incubated at room temperature for 5 minutes. Then 1 μl glycogen was added as carrier, 33 μl of 10 M NH4Ac, and 3 volumes of ethanol for DNA precipitation. The pellet was spun down and washed with 70% ethanol, dried and resuspended in 20 μl water. In some instances, the EZ DNA Methylation Kit (Zymo Research) which uses a simplified version of the Frommer method was used. In these cases, 1 μg of genomic DNA was denatured in 0.3M NaOH for 15 minutes at 37° C. followed by incubation at 50° C. for 16 hours in 0.5 mM hydroquinone and a saturated solution of sodium bisulfite at pH 5. Modified DNA was bound to the Zymo column membrane, then desulfonated with 0.3M NaOH for 15 minutes at room temperature. DNA was washed and resuspended with 50 μL 10 mM Tris-HCl-0.1 mM EDTA, pH 7.5 and stored at −20° C. The bisulfite reaction results in conversion of an unmethylated cytosine to uracil. Methylated cytosine remains unchanged after the bisulfite reaction. The resulting bisulfite modified DNA is single stranded. PCR amplification for sequencing: Primers were designed to amplify both methylated and unmethylated fragments of DNA (Table 5). Five μL of modified DNA ( 1/10 of modification reaction) was amplified first in a 254, reaction volume containing 10 mM Tris-HCl pH8.3, 50 mM KCl, 1.5 mM to 2 mM MgCl2, (Applied Biosystems), 0.25 mM each dNTP, 0.5 unit AmpliTaq (Applied Biosystems), and sequencing primers (each at 200 nM). Cycling conditions were 10 minutes at 95° C., 40 cycles of 30 seconds at 95° C., 30 seconds at 54-62° C., 30 seconds at 72° C., subsequently followed by extension for 5 minutes at 72° C.
Reaction products were purified either by the shrimp-alkaline phosphatase-Exol standard method or on the Qiagen Qiaquick PCR clean-up column and eluted in 30 μL 10 mM Tris-HCl, pH8.5. […]

## Nc1ncn([C@H]2C[C@H](O)[C@@H](CO)O2)c(=O)n1 [5-aza-2′-deoxycytidine]
HT29 treated
  SCNN1B sequencing result (methylation) at CpG site #179: 70
  SCNN1B sequencing result (methylation) at CpG site #192: 90
  SCNN1B sequencing result (methylation) at CpG site #203: 36
  SCNN1B sequencing result (methylation) at CpG site #223: 79
  SCNN1B sequencing result (methylation) at CpG site #228: 74
  SCNN1B sequencing result (methylation) at CpG site #230: 67
  SCNN1B sequencing result (methylation) at CpG site #234: 69
  SCNN1B sequencing result (methylation) at CpG site #238: 75
  SCNN1B sequencing result (methylation) at CpG site #245: 65
  SCNN1B sequencing result (methylation) at CpG site #267: 55
  SCNN1B sequencing result (methylation) at CpG site #295: 26
LS123 treated
  SCNN1B sequencing result (methylation) at CpG site #179: 56
  SCNN1B sequencing result (methylation) at CpG site #192: 63
  SCNN1B sequencing result (methylation) at CpG site #203: 42
  SCNN1B sequencing result (methylation) at CpG site #223: 90
  SCNN1B sequencing result (methylation) at CpG site #228: 87
  SCNN1B sequencing result (methylation) at CpG site #230: 82
  SCNN1B sequencing result (methylation) at CpG site #234: 80
  SCNN1B sequencing result (methylation) at CpG site #238: 77
  SCNN1B sequencing result (methylation) at CpG site #245: 81
  SCNN1B sequencing result (methylation) at CpG site #267: 59
  SCNN1B sequencing result (methylation) at CpG site #295: 23
LS174T treated
  SCNN1B sequencing result (methylation) at CpG site #179: 7
  SCNN1B sequencing result (methylation) at CpG site #192: 56
  SCNN1B sequencing result (methylation) at CpG site #203: 40
  SCNN1B sequencing result (methylation) at CpG site #223: 75
  SCNN1B sequencing result (methylation) at CpG site #228: 81
  SCNN1B sequencing result (methylation) at CpG site #230: 72
  SCNN1B sequencing result (methylation) at CpG site #234: 70
  SCNN1B sequencing result (methylation) at CpG site #238: 55
  SCNN1B sequencing result (methylation) at CpG site #245: 40
  SCNN1B sequencing result (methylation) at CpG site #267: 47
  SCNN1B sequencing result (methylation) at CpG site #295: 7
SW480 treated
  SCNN1B sequencing result (methylation) at CpG site #179: 80
  SCNN1B sequencing result (methylation) at CpG site #192: 44
  SCNN1B sequencing result (methylation) at CpG site #203: 21
  SCNN1B sequencing result (methylation) at CpG site #223: 89
  SCNN1B sequencing result (methylation) at CpG site #228: 83
  SCNN1B sequencing result (methylation) at CpG site #230: 80
  SCNN1B sequencing result (methylation) at CpG site #234: 80
  SCNN1B sequencing result (methylation) at CpG site #238: 87
  SCNN1B sequencing result (methylation) at CpG site #245: 51
  SCNN1B sequencing result (methylation) at CpG site #267: 57
  SCNN1B sequencing result (methylation) at CpG site #295: 69
SW620 treated
  SCNN1B sequencing result (methylation) at CpG site #179: 59
  SCNN1B sequencing result (methylation) at CpG site #192: 88
  SCNN1B sequencing result (methylation) at CpG site #203: 30
  SCNN1B sequencing result (methylation) at CpG site #223: 93
  SCNN1B sequencing result (methylation) at CpG site #228: 95
  SCNN1B sequencing result (methylation) at CpG site #230: 94
  SCNN1B sequencing result (methylation) at CpG site #234: 91
  SCNN1B sequencing result (methylation) at CpG site #238: 86
  SCNN1B sequencing result (methylation) at CpG site #245: 26
  SCNN1B sequencing result (methylation) at CpG site #267: 67
  SCNN1B sequencing result (methylation) at CpG site #295: 23
